Results on 2 molecules are retold here after PMC3034727 (PLoS ONE, 2011).

Assay [1] addresses Construct 4: FLAG-tagged recombinant Hokkaido N1 neuraminidase with an artificial Tetrabrachion stalk (Staphylothermus marinus | influenza A virus A/Hokkaido/15/02 (H1N1)). The assay is described as follows: SEC.
Assay [2] has as its target Construct 4 (recombinant Hokkaido N1 NA, Tetrabrachion stalk) (Influenza A virus, UniProt Q7TER1). In kind it is biochemical, Influenza virus strain A/Hokkaido/15/02 H1N1.
Assay [3] concerns the target Construct 2 (recombinant Hokkaido N1 NA, GCN4-pLI stalk) (Influenza A virus, UniProt Q7TER1). The class given is biochemical, Influenza virus strain A/Hokkaido/15/02 H1N1.
In a further assay the target is Hokkaido virus NA (Influenza A virus, UniProt Q7TER1). In kind it is biochemical, Influenza virus strain A/Hokkaido/15/02 H1N1.

“And” between values parts separate entries of the source, which are not always exact repeats. Identical values can stand only once.

Construct 2 (recombinant Hokkaido N1 NA, GCN4-pLI stalk), sequence (Q7TER1 70-470): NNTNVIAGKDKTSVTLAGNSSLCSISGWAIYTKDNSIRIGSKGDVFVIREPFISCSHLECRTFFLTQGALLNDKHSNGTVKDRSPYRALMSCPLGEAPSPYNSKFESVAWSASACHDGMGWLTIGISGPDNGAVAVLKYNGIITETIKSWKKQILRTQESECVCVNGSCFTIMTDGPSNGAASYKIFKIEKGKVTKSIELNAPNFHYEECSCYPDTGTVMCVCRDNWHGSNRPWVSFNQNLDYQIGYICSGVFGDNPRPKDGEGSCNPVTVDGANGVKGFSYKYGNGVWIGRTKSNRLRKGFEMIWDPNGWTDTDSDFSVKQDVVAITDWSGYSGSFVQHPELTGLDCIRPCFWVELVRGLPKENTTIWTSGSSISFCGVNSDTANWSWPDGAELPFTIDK
Construct 4 (recombinant Hokkaido N1 NA, Tetrabrachion stalk), sequence (Q7TER1 70-470): as above
Hokkaido virus NA, sequence (Q7TER1 entry or part of it, added parts left off): as the sequence (Q7TER1 70-470) above

For the molecule “Construct 4: FLAG-tagged recombinant Hokkaido N1 neuraminidase with an artificial Tetrabrachion stalk (enzyme)”, the stoichiometry N in assay [1] came out at 4.
`CC(=O)N[C@H]1[C@H]([C@H](O)[C@H](O)CO)OC(Oc2ccc3c(C)cc(=O)oc3c2)(C(=O)O)C[C@@H]1O` (stereo partly drawn) [MUNANA, 4-Methylumbelliferyl N-acetyl-a-D-Neuraminic acid]: the “K m value for MUNANA” value in assay [2] was 34.7 µM and 34.7 ± 1.9 µM; in assay [3], 54.4 µM and 54.1 µM and 54.1 ± 4.4 µM; on Hokkaido virus NA it was 24.1 µM and 24.1 ± 1.1 µM.
